Test results from US8859562B2, “Use of RNAI inhibiting PARP activity for the manufacture of a medicament for the treatment of cancer” (The University of Sheffield, priority 2003, dated 2014).

Tests used:
V79 hamster cells = test: PAR polymer staining (sites of PARP activity); type: cell-based; details: V79 cells treated for 24 hours; FIG. 7C
Method: (§1) Cells were plated onto coverslips 4 h prior to 24-h treatments as indicated. Following treatments the medium was removed and coverslips rinsed once in PBS at 37° C. and fixed as described elsewhere. The primary antibodies and dilutions used in this study were; rabbit polyclonal anti PAR (Trevigen; 1:500), goat polyclonal anti Rad51 (C-20, Santa Cruz; 1:200) and rabbit polyclonal anti Rad51 (H-92, Santa Cruz; 1:1000). The secondary antibodies were Cy-3-conjugated goat anti-rabbit IgG antibody (Zymed; 1:500), Alexa 555 goat anti-rabbit F(ab′)2IgG antibody (Molecular Probes; 1:500), Alexa 546 donkey anti-goat IgG antibody (Molecular Probes; 1:500) and Alexa 488 donkey anti-rabbit IgG antibody (Molecular Probes; 1:500). Antibodies were diluted in PBS containing 3% bovine serum albumin. DNA was stained with 1 μg/ml To Pro (Molecular Probes). Images were obtained with a Zeiss LSM 510 inverted confocal microscope using planapochromat 63X/NA 1.4 oil immersion objective and excitation wavelengths 488, 546 and 630 nm. Through focus maximum projection images were acquired from optical sections 0.50 μm apart and with a section thickness of 1.0 μm. Images were processed using Adobe PhotoShop (Abacus Inc). At least 300 nuclei were counted on each slide and those containing more than 10 RAD51 foci or sites of PARP activity were classified as positive.

PARP = PARP activity assay by level of free NAD(P)H (WST-8); type: cell-based; details: FIG. 7F; hydroxyurea 0.5 mM, thymidine 10 mM
Method: A water-soluble tetrazolium salt (5 mM WST-8) was used to monitor the amount of NAD(P)H through its reduction to a yellow coloured formazan dye[43]. 5000 cells were plated in at least triplicate into wells of a 96 well plate and cultured in 100 μl normal growth media for 4 h at 37° C. CK8 buffer (Dojindo Molecular Technology, Gaithersburg, USA), containing WST-8, was then added either with or without treatment with DNA damaging agents at concentrations indicated. Reduction of WST-8 in the presence of NAD(P)H was determined by measuring visible absorbance (OD450) every 30 min. A medium blank was also prepared containing just media and CK8 buffer. Changes in NAD(P)H levels were calculated by comparing the absorbance of wells containing cells treated with DNA damaging agents and those treated with DMSO alone. Alternately relative levels of NAD(P)H in different cells lines were calculated after 4 h incubation in CK8 buffer.

[1] = test system: irs1X2.2 cells (irs1 complemented with XRCC2); test: Colony outgrowth assay, irs1X2.2 cells; type: cell-based, Chinese hamster; details: irs1X2.2 versus irs1; FIG. 1
Method: (§2) 500 cells suspended in medium were plated onto a Petri dish 4 hours prior to the addition of 3-AB, ISQ or NU1025. ISQ and NU1025 were dissolved in DMSO to a final concentration of 0.2% in treatment medium. 7-12 days later, when colonies could be observed, these colonies were fixed and stained with methylene blue in methanol (4 g/l). Colonies consisting of more than 50 cells were subsequently counted.

[2] = test system: CXR3 cells (irs1SF complemented with XRCC3); test: Colony outgrowth assay, CXR3 cells; type: cell-based, Chinese hamster; details: CXR3 versus irs1SF; FIG. 1
Method: as §2

[3] = test system: irs1 cells (XRCC2 deficient, deficient in HR); test: Colony outgrowth assay, irs1 cells; type: cell-based, Chinese hamster; details: irs1, defective in XRCC2; FIG. 1
Method: as §2

[4] = test system: irs1SF cells (XRCC3 deficient, deficient in HR); test: Colony outgrowth assay, irs1SF cells; type: cell-based, Chinese hamster; details: defective in XRCC3, FIG. 1
Method: as §2

V79 cells = test: Pulse-field gel electrophoresis for DSBs, V79 cells; type: cell-based, Chinese hamster; details: highly toxic levels of NU1025 (0.1 mM, 24-hour), FIG. 5A
Method: (§3) 1.5×10^6 cells were plated onto 100 mm dishes and allowed 4 h for attachment. […] These inserts were incubated as described elsewhere (8) and separated by pulse-field gel electrophoresis for 24 h (BioRad; 120° angle, 60 to 240 s switch time, 4 V/cm). The gel was subsequently stained with ethidium bromide for analysis.

[5] = test system: MDA-MB-231 (mutated p53) breast cancer cells depleted of BRCA2; test: Colony outgrowth of siRNA-treated MDA-MB-231 cells; type: cell-based; details: MDA-MB-231, BRCA2 depleted with a mixture of BRCA2 siRNA; FIG. 4
Method: 500 cells suspended in medium were plated onto a Petri dish 4 hours prior to the addition of 3-AB, ISQ or NU1025. ISQ and NU1025 were dissolved in DMSO to a final concentration of 0.2% in treatment medium. 7-12 days later, when colonies could be observed, these colonies were fixed and stained with methylene blue in methanol (4 g/l). Colonies consisting of more than 50 cells were subsequently counted. Predesigned BRCA2 SMARTpool and scrambled siRNAs were purchased (Dharmacon, Lafayette, Colo.). 10000 cells seeded onto 6 well plates and left over night before transfected with 100 nM siRNA using Oligofectamine Reagent (Invitrogen) according to manufacturers instructions. Cells were then cultured in normal growth media for 48 h prior to trypsinisation and replating for toxicity assays. Suppression of BRCA2 was confirmed by Western blotting (as described previously) of protein extracts treated with siRNA with an antibody against BRCA2 (Oncogene, Nottingham, UK).

[6] = test system: BRCA2 deficient cells (VC8); test: Colony outgrowth assay, VC8 cells; type: cell-based, Chinese hamster
Method: as §2

VC8 cells = test: Apoptosis experiments (annexin-V/PI flow cytometry); type: cell-based, Chinese hamster; details: 72 hours following exposure; FIG. 3
Method: 0.25×10^6 cells were plated onto Petri dishes and grown for 4 hours before treatment with NU1025. After 72 hours, cells were trypsinized and resuspended with medium containing any floating cells from that sample. The cells were pelleted by centrifugation and resuspended for apoptosis analysis with FITC-conjugated annexin-V and propidium iodine (PI) (ApoTarget, Biosource International) according to manufacturer's protocol. Samples were analysed by flow cytometry (Becton-Dickenson FACSort, 488 nm laser), and percentage of apoptotic cells was determined by the fraction of live cells (PI-negative) bound with FITC-conjugated annexin-V.

[7] = test system: MCF7 (wild-type p53) breast cancer cells depleted of BRCA2; test: Colony outgrowth of siRNA-treated MCF-7 cells; type: cell-based; details: MCF7, BRCA2 depleted with a mixture of BRCA2 siRNA; FIG. 4
Method: as §2
Predesigned BRCA2 SMARTpool and scrambled siRNAs were purchased (Dharmacon, Lafayette, Colo.). 10000 cells seeded onto 6 well plates and left over night before transfected with 100 nM siRNA using Oligofectamine Reagent (Invitrogen) according to manufacturers instructions. Cells were then cultured in normal growth media for 48 h prior to trypsinisation and replating for toxicity assays. Suppression of BRCA2 was confirmed by Western blotting (as described previously) of protein extracts treated with siRNA with an antibody against BRCA2 (Oncogene, Nottingham, UK).

[8] = test system: BRCA2 deficient V-C8 cells; test: RAD51 foci immunofluorescence, V-C8 cells; type: cell-based, Chinese hamster; details: 24-hour treatment, 10 μM, FIG. 5D
Method: as §1

V-C8 cells = test: Pulse-field gel electrophoresis for DSBs, V-C8 cells; type: cell-based, Chinese hamster; details: highly toxic levels of NU1025 (0.1 mM, 24-hour), FIG. 5A
Method: as §3

[9] = test system: VC8#13 cells (functional BRCA2 gene on chromosome 13); test: Colony outgrowth assay, VC8#13 cells; type: cell-based, Chinese hamster; details: BRCA2 on chromosome 13 (VC8#13); FIG. 2
Method: as §2

V-C8+B2 cells [10] = test: RAD51 foci immunofluorescence, V-C8+B2 cells; type: cell-based, Chinese hamster; details: 24-hour treatment, 10 μM, t-test p<0.05, FIG. 5D
Method: as §1

V-C8+B2 cells [11] = test: Survival on co-treatment with replication inhibitors and NU1025; type: cell-based, Chinese hamster; details: co-treatment with NU1025 (10 μM)
Method: as §2

[12] = test system: VC8+B2 cells (functional BRCA2 gene on overexpression vector); test: Colony outgrowth assay, VC8+B2 cells; type: cell-based, Chinese hamster; details: FIG. 2
Method: as §2

Row | Structure (SMILES) | number of cells containing sites of PARP activity (V79 hamster cells) | activation of PARP and reduction of NAD(P)H levels (PARP) | sensitivity after introduction of functional XRCC2 gene [1] | sensitivity after introduction of functional XRCC3 gene [2] | sensitivity to the toxic effect (survival) [3] | sensitivity to the toxic effect (survival) [4] | other results
1 | Cc1cn([C@H]2C[C@H](O)[C@@H](CO)O2)c(=O)[nH]c1=O [thymidine] | substantial increase | much slower |  |  |  |  | 
2 | NC(=O)NO [hydroxyurea] | substantial increase | much slower |  |  |  |  | 
3 | COS(C)(=O)=O [MMS, Methylmethane sulphonate] |  | depletes the NAD(P)H levels |  |  |  |  | 
4 | Oc1cccc2c(O)nccc12 [ISQ, 1,5-dihydroxyisoquinoline] |  |  | corrected | corrected | very sensitive | very sensitive | 
5 | Cc1nc2c(O)cccc2c(=O)[nH]1 [NU1025, 8-hydroxy-2-methylquinazolin-4-[3H]one] |  |  | corrected | corrected | very sensitive | very sensitive | accumulation of DSBs (V79 cells): no DSBs were detectable; survival [5]: profoundly reduced the survival; sensitivity to cytotoxicity relative to wild type cells ([6]; BRCA2 deficient cells versus wild type cells): 100 times; sensitivity to the toxic effect (survival) ([6]; VC8 versus wild type V79Z, FIG. 2): very sensitive; level of apoptosis (VC8 cells): triggered apoptosis only in VC8 cells; survival [7]: profoundly reduced the survival; formation of RAD51 foci [8]: unable to form RAD51 foci; accumulation of DSBs (V-C8 cells): no DSBs were detectable; sensitivity after introduction of functional BRCA2 gene [9]: corrected; formation of RAD51 foci (V-C8+B2 cells [10]): RAD51 foci were indeed induced; sensitivity to hydroxyurea (V-C8+B2 cells [11]; FIG. 7D): enhances the sensitivity; sensitivity to thymidine (V-C8+B2 cells [11]; FIG. 7E): enhances the sensitivity; sensitivity after introduction of functional BRCA2 gene [12]: corrected
6 | NC(=O)c1cccc(N)c1 [3-AB, 3-aminobenzamide] |  |  | corrected | corrected | very sensitive | very sensitive | 
